Legend:
MRSA (SA 180-F strain) [1] = test: Antibacterial activity in liquid medium (optical density); assay type: cell-based, methicillin-resistant Staphylococcus aureus; parameters: key to change of optical density vs negative control: ↓: Decrease in the parameter (optical density) compared to the negative control; −: No decrease in the parameter; ↑: Reverse effect (increase in the optical density compared to the control); conditions: 24 h, 37 °C; for change of optical density vs negative control: OD 595 nm
Protocol: To evaluate the antibacterial activity of peptides in liquid culture, a stationary-phase culture of the tested bacterial strain was diluted 100-fold in fresh medium containing peptides or gentamicin (positive control) at the specified concentrations. A total volume of 200 µL was added to each well of a 96-well round-bottom microtiter plate. After 24 h of incubation at 37 °C, the samples were transferred to a flat-bottom 96-well microtiter plate, and the optical density was measured at 595 nm. Separately, the optical density of medium containing peptides but no bacteria was measured. These values were used as baseline (zero) readings for subsequent data analysis.

E. coli (MG1655 strain) [2] = test: Antibacterial activity on 0.7% agar (inhibition zone); assay type: cell-based, Escherichia coli; parameters: key: +: The presence of a bacterial growth inhibition zone; −: The absence of a bacterial growth inhibition zone; conditions: drop on 0.7% agar, 24 h
Protocol: Drops of the samples were applied to the surface of solidified 0.7% agar at the concentrations indicated in Table 2 and Supplementary S2 (Figures S1–S4). After 24 h of incubation, the results were evaluated based on the presence or absence (+/−) of inhibition zones.
Once the agar solidified, drops of peptide samples at the concentrations 1, 0.1, 0.01, and 0.001 mg/mL were applied to the agar surface.

MRSA (SA 180-F strain) [3] = test: Early biofilm formation, crystal violet staining; assay type: cell-based, methicillin-resistant Staphylococcus aureus; conditions: for concentration given with ↓ (crystal violet): 24 h; for biofilm biomass following treatment (crystal violet): Table 3; for effectiveness compared to meropenem: tested concentrations 0.01, 0.1, 1, 10 mg/mL, crystal violet
Protocol: (§1) After 24 h of incubation, the medium was removed. To assess the total biofilm biomass, the wells were rinsed with sterile PBS solution and stained with 0.1% crystal violet. The dye bound to the surface was then removed using 95% ethanol. To assess the presence of metabolically active cells, 0.3% MTT (PanEco Ltd., Moscow, Russia) solution was added to each well, and the plates were incubated at 37 °C for 2 h. After incubation, the MTT solution was removed, 150 µL of DMSO (Chimmed, Moscow, Russia) and 25 µL of glycine buffer were added to each well, and the plates were left at room temperature for 15 min. The resulting solutions were transferred to a flat-bottom 96-well plate, and optical density was measured at 595 nm.

S. aureus (129B strain) [4] = test: Early biofilm formation, MTT assay; assay type: cell-based, Staphylococcus aureus; parameters: key: ↓: Decrease in the parameter (optical density) compared to the negative control; −: No decrease in the parameter; ↑: Reverse effect (increase in the optical density compared to the control); conditions: 24 h, 0.3% MTT 2 h 37 °C, OD 595 nm
Protocol: as §1

E. coli (MG1655 strain) [5] = test: Mature biofilms, crystal violet staining; assay type: cell-based, Escherichia coli; parameters: key: ↓: Decrease in the parameter (optical density) compared to the negative control; −: No decrease in the parameter; ↑: Reverse effect (increase in the optical density compared to the control); conditions: mature biofilm: peptide added after 24 h, further 24 h; 0.01-10 mg/mL
Protocol: as §1
(§2) A stationary-phase culture of the tested strain was diluted 100-fold in fresh medium (200 µL per well) and added to the wells of a 96-well round-bottom plate. […] After another 24 h, the medium was removed and the wells were rinsed with sterile PBS to eliminate planktonic cells. The procedures for assessing total biofilm biomass and cell metabolic activity using crystal violet and MTT assays were performed in the same manner as described above for early-stage biofilm experiments.

[6] = test system: P. aeruginosa (2943 strain); test: Mature biofilms, crystal violet staining; assay type: cell-based, Pseudomonas aeruginosa; parameters: key: ↓: Decrease in the parameter (optical density) compared to the negative control; −: No decrease in the parameter; ↑: Reverse effect (increase in the optical density compared to the control); conditions: mature biofilm: peptide added after 24 h, further 24 h; 0.01-10 mg/mL
Protocol: as §1, §2

[7] = test system: P. aeruginosa (2943 strain); test: Mature biofilms, MTT assay; assay type: cell-based, Pseudomonas aeruginosa; parameters: key: ↓: Decrease in the parameter (optical density) compared to the negative control; −: No decrease in the parameter; ↑: Reverse effect (increase in the optical density compared to the control); conditions: mature biofilm: peptide added after 24 h, further 24 h; 0.01-10 mg/mL
Protocol: as §1, §2

E. coli (MG1655 strain) [8] = test: Mature biofilms, crystal violet staining; assay type: cell-based, Escherichia coli; parameters: key: ↓: Decrease in the parameter (optical density) compared to the negative control; −: No decrease in the optical density; ↑: Reverse effect (increase in the optical density compared to the control); conditions: mature biofilm: peptide added after 24 h, further 24 h, 0.01-10 mg/mL
Protocol: as §1, §2

S. aureus (129B strain) [9] = test: Mature biofilms, MTT assay; assay type: cell-based, Staphylococcus aureus; parameters: key: ↓: Decrease in the parameter (optical density) compared to the negative control; −: No decrease in the optical density; ↑: Reverse effect (increase in the optical density compared to the control); conditions: mature biofilm: peptide added after 24 h, further 24 h; 0.01-10 mg/mL
Protocol: as §1, §2

[10] = test system: P. aeruginosa (2943 strain); test: Mature biofilms, MTT assay; assay type: cell-based, Pseudomonas aeruginosa; parameters: key: ↓: Decrease in the parameter (optical density) compared to the negative control; −: No decrease in the optical density; ↑: Reverse effect (increase in the optical density compared to the control); conditions: mature biofilm: peptide added after 24 h, further 24 h, 0.01-10 mg/mL
Protocol: as §1, §2

MRSA (SA 180-F strain) [11] = test: Mature biofilms, crystal violet staining; assay type: cell-based, methicillin-resistant Staphylococcus aureus; parameters: key: ↓: Decrease in the parameter (optical density) compared to the negative control; −: No decrease in the optical density; ↑: Reverse effect (increase in the optical density compared to the control); conditions: mature biofilm: peptide added after 24 h, further 24 h; 0.01-10 mg/mL
Protocol: as §1, §2

RKKRRQRRRGGGGVVVHINGGKFGGGGSRQIKIWFQNRRMKWKK [R44K^S]
concentration given with ↓ (decrease in optical density) (MRSA (SA 180-F strain) [1]): 0.1 mg/mL | change of optical density vs negative control (MRSA (SA 180-F strain) [1]): ↓ (0.1 mg/mL) | bacterial growth inhibition zone (E. coli (MG1655 strain) [2]; 0.001 mg/mL): − | bacterial growth inhibition zone (E. coli (MG1655 strain) [2]; 0.01 mg/mL): − | bacterial growth inhibition zone (E. coli (MG1655 strain) [2]; 0.1 mg/mL): − | bacterial growth inhibition zone (E. coli (MG1655 strain) [2]; 1 mg/mL): − | effect on MRSA biofilm formation (crystal violet staining intensity) (MRSA (SA 180-F strain) [3]; 1 and 10 mg/mL, Figure 1, two independent replicates): inhibitory effect | concentration given with ↓ (crystal violet) (MRSA (SA 180-F strain) [3]): 1 mg/mL | concentration given with ↓ (crystal violet) (MRSA (SA 180-F strain) [3]; listed as R44K^P): 10 mg/mL | biofilm biomass following treatment (crystal violet) (MRSA (SA 180-F strain) [3]): marked reduction in biofilm biomass | effectiveness compared to meropenem (MRSA (SA 180-F strain) [3]; Figure 1): less effective compared to meropenem | change of optical density after MTT assay vs negative control (S. aureus (129B strain) [4]): ↑ | change of optical density after crystal violet staining vs negative control (E. coli (MG1655 strain) [5]): ↑ | change of optical density after crystal violet staining vs negative control [6]: ↑ | change of optical density after MTT assay vs negative control [7]: ↑ | change of optical density after crystal violet staining vs negative control (E. coli (MG1655 strain) [8]; listed as R44K^P): − | change of optical density after MTT assay vs negative control (S. aureus (129B strain) [9]): − | change of optical density after MTT assay vs negative control ([10]; listed as R44K^P): −

ITDFGIFIGLGGGGSRQIKIWFQNRRMKWKK [I31K^P]
concentration given with ↓ (decrease in optical density) (MRSA (SA 180-F strain) [1]): 1 mg/mL | change of optical density vs negative control (MRSA (SA 180-F strain) [1]): ↓ (1 mg/mL) | change of optical density after MTT assay vs negative control (S. aureus (129B strain) [4]): ↑ | change of optical density after crystal violet staining vs negative control [6]: ↑ | change of optical density after MTT assay vs negative control [7]: ↑ | change of optical density after crystal violet staining vs negative control (E. coli (MG1655 strain) [8]): −

RKKRRQRRRGGGGITDFGIFIGL [R23L^P]
concentration given with ↓ (decrease in optical density) (MRSA (SA 180-F strain) [1]): 0.1 mg/mL | change of optical density vs negative control (MRSA (SA 180-F strain) [1]): ↓ (0.1 mg/mL) | bacterial growth inhibition zone (E. coli (MG1655 strain) [2]; 0.001 mg/mL): − | bacterial growth inhibition zone (E. coli (MG1655 strain) [2]; 0.01 mg/mL): − | bacterial growth inhibition zone (E. coli (MG1655 strain) [2]; 0.1 mg/mL): − | bacterial growth inhibition zone (E. coli (MG1655 strain) [2]; 1 mg/mL): + | effect on MRSA biofilm formation (crystal violet staining intensity) (MRSA (SA 180-F strain) [3]; 0.01 mg/mL, Figure 1): inhibitory effect | concentration given with ↓ (crystal violet) (MRSA (SA 180-F strain) [3]): 10 mg/mL | biofilm biomass following treatment (crystal violet) (MRSA (SA 180-F strain) [3]): marked reduction in biofilm biomass | effectiveness compared to meropenem (MRSA (SA 180-F strain) [3]; Figure 1): less effective compared to meropenem | change of optical density after MTT assay vs negative control (S. aureus (129B strain) [4]): ↑ | change of optical density after crystal violet staining vs negative control (E. coli (MG1655 strain) [5]): ↑ | change of optical density after crystal violet staining vs negative control [6]: ↑ | change of optical density after MTT assay vs negative control [7]: ↑ | change of optical density after crystal violet staining vs negative control (MRSA (SA 180-F strain) [11]): − | change of optical density after MTT assay vs negative control (S. aureus (129B strain) [9]): −

VTDFGVFVEIGGGGSRQIKIWFQNRRMKWKK [V31K^T, amyloidogenic fragment of S1 of T. thermophilus linked via glycine-rich linker to antennapedia peptide]
concentration given with ↓ (decrease in optical density) (MRSA (SA 180-F strain) [1]): 1 mg/mL | change of optical density vs negative control (MRSA (SA 180-F strain) [1]): ↓ (1 mg/mL) | change of optical density vs negative control (MRSA (SA 180-F strain) [1]; listed as V31K^S): ↓ (0.1 mg/mL) | concentration given with ↓ (decrease in optical density) (MRSA (SA 180-F strain) [1]; listed as V31K^S): 0.1 mg/mL | bacterial growth inhibition zone (E. coli (MG1655 strain) [2]; 0.001 mg/mL): − | bacterial growth inhibition zone (E. coli (MG1655 strain) [2]; 0.01 mg/mL): − | bacterial growth inhibition zone (E. coli (MG1655 strain) [2]; 0.1 mg/mL): − | bacterial growth inhibition zone (E. coli (MG1655 strain) [2]; 1 mg/mL): − | bacterial growth inhibition zone (E. coli (MG1655 strain) [2]; 1 mg/mL, listed as V31K^S): + | effect on MRSA biofilm formation (crystal violet staining intensity) (MRSA (SA 180-F strain) [3]; 0.01 mg/mL, Figure 1): inhibitory effect | effect on MRSA biofilm formation (crystal violet staining intensity) (MRSA (SA 180-F strain) [3]; 10 mg/mL, Figure 1): reversed | concentration given with ↓ (crystal violet) (MRSA (SA 180-F strain) [3]): 10 mg/mL | biofilm biomass following treatment (crystal violet) (MRSA (SA 180-F strain) [3]): marked reduction in biofilm biomass | effectiveness compared to meropenem (MRSA (SA 180-F strain) [3]; Figure 1): less effective compared to meropenem | change of optical density after MTT assay vs negative control (S. aureus (129B strain) [4]): ↑ | change of optical density after crystal violet staining vs negative control (E. coli (MG1655 strain) [5]): ↑ | change of optical density after crystal violet staining vs negative control [6]: ↑ | change of optical density after MTT assay vs negative control [7]: ↑ | change of optical density after crystal violet staining vs negative control (MRSA (SA 180-F strain) [11]): − | change of optical density after crystal violet staining vs negative control (E. coli (MG1655 strain) [8]; listed as V31K^S): − | change of optical density after MTT assay vs negative control (S. aureus (129B strain) [9]): − | change of optical density after MTT assay vs negative control ([10]; listed as V31K^S): −

RKKRRQRRRGGGGVTDFGVFVEI [R23I^T, TAT cell-penetrating peptide linked via glycine linker to amyloidogenic fragment of S1 ribosomal protein of T. thermophilus]
concentration given with ↓ (decrease in optical density) (MRSA (SA 180-F strain) [1]): 1 mg/mL | change of optical density vs negative control (MRSA (SA 180-F strain) [1]): ↓ (1 mg/mL) | bacterial growth inhibition zone (E. coli (MG1655 strain) [2]; 0.001 mg/mL): − | bacterial growth inhibition zone (E. coli (MG1655 strain) [2]; 0.01 mg/mL): − | bacterial growth inhibition zone (E. coli (MG1655 strain) [2]; 0.1 mg/mL): − | bacterial growth inhibition zone (E. coli (MG1655 strain) [2]; 1 mg/mL): − | change of optical density after MTT assay vs negative control (S. aureus (129B strain) [4]): ↑ | change of optical density after crystal violet staining vs negative control (MRSA (SA 180-F strain) [11]): − | change of optical density after crystal violet staining vs negative control (E. coli (MG1655 strain) [8]): − | change of optical density after MTT assay vs negative control (S. aureus (129B strain) [9]): − | change of optical density after MTT assay vs negative control [10]: −
